Reference: patent US8337899B2, “Solid pharmaceutical dispersions with enhanced bioavailability” (Bend Research, Inc., priority 1997, dated 2012)
Blank lines part the entries; values can stand above or below the molecule they belong to.

What was measured:
[1] = centrifuge in vitro dissolution test in MFD solution; format: physicochemical; conditions: centrifuge method; for MSSC (maximum supersaturated concentration): MFD solution pH 6.5, 37° C., supernatant; for C90: concentration at 90 minutes; for C1200: concentration at 1200 minutes
Procedure: This example discloses an in vitro dissolution test termed the “centrifuge” method. This method was used to test the dissolution of material made by essentially the same method as that described in Example 1 except that the concentration of Compound 1 was decreased by a factor of 2 to 66.5 mg such that the ratio of compound to polymer was 1:1. (see Example 7, Table I).
In a 37° C. controlled temperature box, 1.8 mg of solid product from Example 1 was accurately weighed into an empty microcentrifuge tube (polypropylene, Sorenson Bioscience Inc.). The theoretical maximum concentration of compound in solution (e.g., if all compound dissolved) was 383 μgA/ml [1.8 mg dispersion (1000 μg/1 mg) (0.5 μg compound/μg dispersion) (0.764 compound assay)/1.8 ml=[…]]. This value is termed the theoretical maximum supersaturated concentration and is abbreviated Theoretical MSSC. 1.8 mL of a 37C phosphate buffered saline solution (8.2 mM NaCl, 1.1 mM Na2HPO4, 4.7 mM KH2PO4, pH 6.5, 290 mOsm/kg) containing 14.7 mM sodium taurocholic acid (Fluka) and 2.8 mM 1-palmitoyl-2-oleoyl-sn-glycero-3-phosphocholine (Avanti Polar Lipids) was added to the tube. The centrifuge tube was closed and a timer was started. The tube was then mixed continuously at the highest speed on a vortex mixer (Fisher Vortex Genie 2) for 60 seconds. The tube was transferred to a centrifuge (Marathon, Model Micro A) allowed to stand undisturbed for six minutes, then centrifuged at 13,000 G for 60 seconds. A 25 uL sample was removed from the solids-free supernatant in the centrifuge tube via pipette (Gilson Pipetman P-100) ten minutes after the timer was started. Solids in the centrifuge tube were resuspended by mixing the sample continuously on the vortex mixer for 30 seconds. The centrifuge tube was returned to the centrifuge and allowed to stand undisturbed until the next sample was taken. Each sample was centrifuged, sampled and resuspended as described previously. Each sample was diluted 1:1 with a solution containing 60/40 1.7 wt % ammonium ascorbate/acetonitrile, and the concentration of compound was determined by HPLC (Hewlett Packard 1090 HPLC, Phenomenex Ultracarb ODS 20 analytical column, absorbance measured at 215 nm with a diode array spectrophotometer). […] […] The maximum compound concentration observed, 125 μgA/ml, is termed the maximum supersaturated concentration of compound and is abbreviated MSSC.

[2] = syringe/filter in vitro dissolution test in MFD solution; format: physicochemical; conditions: for C90: concentration at 90 minutes; for MSSC (maximum supersaturated concentration): syringe/filter method, MFD solution pH 6.5, 37° C., 0.45 μm filtrate
Procedure: This example discloses an in vitro dissolution test termed the “syringe/filter” method. In this method the concentration of test compound in solution is determined as a function of time. Test solution is held in a syringe from which samples are expelled through a filter at pre-determined time points. In between expelling samples from the syringe, the syringe is rotated (50 rpm) on a wheel held in an oven at 37° C.
A 20 GA hypodermic needle was attached to the syringe, and 10 mL of a model-fasted duodenal (MFD) solution at 37° C. was drawn into the syringe.
The MFD solution was prepared using the following procedure. […] This mixture was then mixed thoroughly by vortex mixer (Fisher Vortex Genie), and the solvent removed rapidly by roto-evaporator (Rotavapor RE121, Büchi), leaving a dry white surface dispersion coating the flask. The surface dispersion was then reconstituted with 200 mL of the 37° C. phosphate buffered saline.
The needle was then replaced with a 13 mm, 0.45 μm polyvinylidine diflouride syringe filter (Scientific Resources, Titan), and the syringe was vigorously shaken for 30 sec. After 30 sec, 6 drops of the solution was expelled and a subsequent 13 drop sample was delivered to a test tube. After expelling the sample, the syringe plunger was drawn back to pull an air bubble into the syringe to aid in subsequent mixing and the syringe placed back on a rotating wheel in a 37° C. oven. […] The remaining solution in the syringe was mixed by rotating on a wheel at 50 rpm in a 37° C. temperature-controlled box.

[3] = solid amorphous dispersions in HPMCAS, pH 4.0; cited from earlier work
aqueous solubility = format: physicochemical; conditions: pH 6.5

MSSC (maximum supersaturated concentration) [1]: 194 μgA/mL
C90 [1]: 158 μgA/mL
C1200 [1]: 194 μgA/mL
Structure (SMILES): O=C(N[C@@H](Cc1ccccc1)[C@@H](O)C(=O)N1C[C@@H](O)[C@@H](O)C1)c1cc2cc(Cl)ccc2[nH]1 (relative stereo) [Example C17, 1H-Indole-2-caboxamide, 5-chloro-N-[3-(3,4-dihydroxy-1-pyrrolidinyl)-2-hydroxy-3-oxo-1-(phenylmethnyl)propyl]-, [R—[R*,S*-(cis)]]-]

C90 ([2]; syringe/filter, MFD, 37° C.): 10 μgA/mL
C180 ([2]; concentration at 180 minutes, syringe/filter, MFD, 37° C.): 8.5 μgA/mL
C1200 ([2]; concentration at 1200 minutes, syringe/filter, MFD, 37° C.): 9 μgA/mL
MSSC (maximum supersaturated concentration) [2]: 10 μgA/mL
Structure (SMILES): CON(C)C(=O)C(O)[C@H](Cc1ccccc1)NC(=O)c1cc2cc(Cl)ccc2[nH]1 (stereo in doubt) [Example C1, [R—(R*,S*)]-5-chloro-N-[2-hydroxy-3-(methoxymethylamino)-3-oxo-1-(phenylmethyl)propyl]-1-H-indole-2-carboxamide]

C60 ([2]; concentration at 60 minutes, syringe/filter, MFD, 37° C.): 17 μgA/mL
C90 ([2]; syringe/filter, MFD, 37° C.): 15 μgA/mL
MSSC (maximum supersaturated concentration) [2]: 18 μgA/mL
Structure (SMILES): COC1=CC(=O)CC(C)C12Oc1c(Cl)c(OC)cc(OC)c1C2=O (stereo not drawn) [Example C11, 7-chloro-4,6-dimethoxy-courmaran-3-one-2-spiro-1′-(2′-methoxy-6′-methylcyclohex-2′en-4′-one)]

C3 ([1]; concentration at 3 minutes): 14 μgA/mL
C10 ([1]; concentration at 10 minutes): 20 μgA/mL
C20 ([1]; concentration at 20 minutes): 28 μgA/mL
C40 ([1]; concentration at 40 minutes): 34 μgA/mL
C90 [1]: 50 μgA/mL
Structure (SMILES): O=C1NC(=O)C(c2ccccc2)(c2ccccc2)N1 [Example C14, 5,5-diphenylhydantoin]

MSSC (maximum supersaturated concentration) [1]: 22 μgA/mL
C90 [1]: 22 μgA/mL
C1200 [1]: 22 μgA/mL
Structure (SMILES): CCC(CC)Nc1cc(C)nc(Oc2c(C)cc(C)cc2C)c1C [Example C16, [3,6-dimethyl-2-(2,4,6-trimethyl-phenoxy)-pyridin-4-yl]-(1-ethyl-propyl)-amine]

Continued, molecule first:

Structure (SMILES): CON(C)C(=O)C(O)[C@H](Cc1ccccc1)NC(=O)c1cc2cc(Cl)ccc2[nH]1 (stereo in doubt) [Compound 1, [R—(R*,S*)]-5-chloro-N-[2-hydroxy-3-(methoxymethylamino)-3-oxo-1-(phenylmethyl)propyl]-1-H-indole-2-carboxamide]
equilibrium solubility ([2]; in the dissolution medium (MFD)): 9 μgA/ml

Structure (SMILES): CCC(CC)Oc1cc(C)nc(Oc2c(C)cc(C)cc2C)c1C [Example C5]
MSSC (maximum supersaturated concentration) [1]: 18 μgA/mL
C90 [1]: 18 μgA/mL
C1200 [1]: 13 μgA/mL

Structure (SMILES): CC[C@H]1OC(=O)C[C@@H](O)[C@H](C)[C@@H](O[C@@H]2O[C@H](C)[C@@H](O[C@H]3C[C@@](C)(O)[C@@H](OC(=O)Cc4ccc(OC)cc4)[C@H](C)O3)[C@H](N(C)C)[C@H]2O)[C@@H](CC=O)C[C@@H](C)C(=O)/C=C/C(C)=C/[C@@H]1CO[C@@H]1O[C@H](C)[C@@H](O)[C@@H](OC)[C@H]1OC [MAT, 4″-0-(4-methoxyphenyl)acetyltylosin]
supersaturated concentration relative to crystalline MAT [3]: 9 fold

Structure (SMILES): Cc1ccc2c(c1)N(CC(=O)NC(C)(C)C)C(=O)C(NC(=O)Nc1cccc(Cl)c1)CC2c1ccccc1 (stereo not drawn) [N-tert-butyl-2-{3-[3-(3-chloro-phenyl)-unreido]-8-methyl-2-oxo-5-phenyl-2,3,4,5-tetrahydrobenxo[b]azepin-1-yl}-acetamide]
aqueous solubility (aqueous solubility): less than 3.0 μg/ml
